In patent US10441562B2, “Aromatic farnesyl compound and application thereof” (INSTITUTE OF MICROBIOLOGY, CHINESE ACADEMY OF SCIENCES, priority 2015, dated 2019):

Assays:
[1] = target: T1, protein tyrosine phosphatase 1B (PTP-1B) (Homo sapiens, UniProt P18031); test: PTP-1B inhibitory activity test in vitro; assay type: biochemical
T1 sequence (P18031 1-435): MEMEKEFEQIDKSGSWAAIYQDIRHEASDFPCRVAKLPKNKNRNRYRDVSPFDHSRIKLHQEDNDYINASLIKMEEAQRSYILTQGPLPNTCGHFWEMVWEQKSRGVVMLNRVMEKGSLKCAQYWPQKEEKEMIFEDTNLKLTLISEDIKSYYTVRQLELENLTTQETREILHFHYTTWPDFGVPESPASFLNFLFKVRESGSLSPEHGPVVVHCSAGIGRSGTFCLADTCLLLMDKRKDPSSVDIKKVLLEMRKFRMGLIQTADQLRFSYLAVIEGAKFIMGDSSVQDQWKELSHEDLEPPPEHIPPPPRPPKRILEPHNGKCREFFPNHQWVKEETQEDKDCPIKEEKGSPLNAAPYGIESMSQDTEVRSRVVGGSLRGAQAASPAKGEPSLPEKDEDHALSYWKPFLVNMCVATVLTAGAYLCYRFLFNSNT
Summary of the method: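 Compound was preincubated 10 min at room temperature with 170 μg/mL PTP-1B solution, then 1 mM pNPP substrate was added and incubated 37 °C for 30 min. Reaction stopped with 3M NaOH; absorbance read at […], with blank and compound-background controls.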

[2] = tested on: hyperglycemia KK-A^y mice; test: blood sugar of hyperglycemia KK-A^y mice; assay type: in vivo; set-up: blood sugar: unit not given here; details: for blood sugar at the 1st day, 0: 1st day 0 h; for blood sugar at the 1st day, 30 min: 1st day 30 min after intragastric administration
Description: Materials: accurately weigh the 2 compounds S13 and S28 discussed in example 2, and then add 0.5% CMC-Na to make the solution of 5 mg/ml used for activity test. KK-A^y mice are purchased from Chinese Academy of Medical Sciences & Peking Union Medical College Institute of Animal Studies. Experiments are carried out after adapting to the environment (T=20-24° C., constant humidity: 50-60%, 12 hours light exposure (8:00-20:00), soundproof, free feeding and drinking) for 1 week. Glucometer is purchased from Roche.
Methods: 10 male C57 mice of 6-8 weeks of 20-22 g are used as normal control group (1). Detect the fasting glucose of male KK-A^y mice, which are 6-8 weeks with the weight of 28-32 g, and divide them into different groups according to the blood sugar level and body weight: (2) model control group, (3) which is administered by compound S13 with the dose of 1 mg/kg, (4) which is administered by compound S13 with the dose of 5 mg/kg, (5) which is administered by compound S13 with the dose of 10 mg/kg, (6) which is administered by compound S13 with the dose of 20 mg/kg, (7) which is administered by compound S28 with the dose of 1 mg/kg, (8) which is administered by compound S28 with the dose of 5 mg/kg, (9) which is administered by compound S28 with the dose of 10 mg/kg, (10) which is administered by compound S28 with the dose of 20 mg/kg, (11) which is administered by metformin with the dose of 8 g/kg, (12) which is administered by compound S13 with the dose of 2.5 mg/kg and metformin with the dose of 4 g/kg, (13) which is administered by compound S13 with the dose of 5 mg/kg and metformin with the dose of 4 g/kg, (14) which is administered by compound S28 with the dose of 2.5 mg/kg and metformin with the dose of […], (15) which is administered by compound S28 with the dose of 5 mg/kg and metformin with the dose of […]. Each group has 8 mice, and is administrated successively for 3 weeks. Model control group is given with equal amounts of 0.5% CMC-Na.
1) Effects of drugs on blood sugar: at the first day after administration, the mice are fasted for 2 hours and blood is collected (0 h) to detect the fasting blood sugar. After the compound is given to the mice by intragastric administration for 30 min, blood is collected from tip of tail to detect the blood sugar level.
2) Effects on body weight and blood sugar: the body weight of mice are recorded at the 2th, 5th, 8th, 11th, 14th, 17th, 20th day after administration, and blood is collected from tip of tail to detect the blood sugar level (see table 10).

Kunming species mice = test: acute toxicity test of mice
Description: (§1) Materials: 20 Kunming species mice of 6-8 weeks of 20-22 g are purchased from Beijing Vital River Laboratory Animal Technology Co., Ltd.,
(§2) Accurately weigh the 2 compounds S13 and S28, and then add 0.5% CMC-Na to make the solution of 0.2 g/ml.
(§3) After being acclimatized for 3-5 days, the mice are fasted at 18:00 in the day before the experiment, free drinking. The mice are randomly divided into groups of 10 animals in each and given with medicine by intragastric administration, and 0.25 ml of drugs is given to every 10 g weight of mice, i.e. dose 5 g/kg. Mice of control group are given with 0.5% CMC-Na by intragastric administration, and 0.25 ml of solution are given to every 10 g weight of mice.
(§4) After administration, observe the general status of mice, such as appearance, behavior, response to stimulus, secretion and excretion, and record the time when abnormal phenomena happen. If death occurred, record time and observe the abnormal phenomena by autopsy.

[3] = acute toxicity test of mice; details: Kunming, mouse, in vivo, po, 5 g/kg
Description: as §1, §2, §3, §4

[4] = 2st day, 20 mg/kg, groups 6, 10
[5] = 5st day, 20 mg/kg, groups 6, 10
[6] = 8st day, 20 mg/kg, groups 6, 10
[7] = 11st day, 10 mg/kg, groups 5, 9
[8] = 11st day, 20 mg/kg, groups 6, 10
[9] = 14st day, 10 mg/kg, groups 5, 9
[10] = 14st day, 20 mg/kg, groups 6, 10
[11] = 17st day, 10 mg/kg, groups 5, 9
[12] = 17st day, 20 mg/kg, groups 6, 10
[13] = 20st day, 10 mg/kg, groups 5, 9
[14] = 20st day, 20 mg/kg, groups 6, 10

CC(C)=CCC/C(C)=C/CCC1=C[C@H](c2cc(O)ccc2O)OC1=O [S13, (R,E)-5-(2,5-dihydroxyphenyl)-3-(4,8-dimethylnona-3,7-dien-1-yl)furan-2(5H)-one]
IC50 [1]: 8.9 µM | effect on blood sugar of hyperglycemia mice (in words) [2]: significant effects on blood sugar of hyperglycemia mice | blood sugar at the 1st day, 0 ([2]; 1 mg/kg, groups 3, 7): 14.7 | blood sugar at the 1st day, 0 ([2]; 5 mg/kg, groups 4, 8): 14.8 | blood sugar at the 1st day, 0 ([2]; 10 mg/kg, groups 5, 9): 14.9 | blood sugar at the 1st day, 0 ([2]; 20 mg/kg, groups 6, 10): 14.7 | blood sugar at the 1st day, 30 min ([2]; 1 mg/kg, groups 3, 7): 11.1 | blood sugar at the 1st day, 30 min ([2]; 5 mg/kg, groups 4, 8): 9.2 | blood sugar at the 1st day, 30 min ([2]; 10 mg/kg, groups 5, 9): 9.21 | blood sugar at the 1st day, 30 min ([2]; 20 mg/kg, groups 6, 10): 6.24 | blood sugar ([2]; 2st day, 1 mg/kg, groups 3, 7): 17.3 | blood sugar ([2]; 2st day, 5 mg/kg, groups 4, 8): 10.1 | blood sugar ([2]; 2st day, 10 mg/kg, groups 5, 9): 13.98 | blood sugar [2, 4]: 13.2 | blood sugar ([2]; 5st day, 1 mg/kg, groups 3, 7): 14.1 | blood sugar ([2]; 5st day, 5 mg/kg, groups 4, 8): 10.8 | blood sugar ([2]; 5st day, 10 mg/kg, groups 5, 9): 13.5 | blood sugar [2, 5]: 12.9 | blood sugar ([2]; 8st day, 1 mg/kg, groups 3, 7): 13.8 | blood sugar ([2]; 8st day, 5 mg/kg, groups 4, 8): 7.1 | blood sugar ([2]; 8st day, 10 mg/kg, groups 5, 9): 14.1 | blood sugar [2, 6]: 12.8 | blood sugar ([2]; 11st day, 1 mg/kg, groups 3, 7): 15.1 | blood sugar ([2]; 11st day, 5 mg/kg, groups 4, 8): 8.2 | blood sugar [2, 7]: 14.2 | blood sugar [2, 8]: 12.8 | blood sugar ([2]; 14st day, 1 mg/kg, groups 3, 7): 12.3 | blood sugar ([2]; 14st day, 5 mg/kg, groups 4, 8): 8.2 | blood sugar [2, 9]: 13.9 | blood sugar [2, 10]: 12.5 | blood sugar ([2]; 17st day, 1 mg/kg, groups 3, 7): 13.1 | blood sugar ([2]; 17st day, 5 mg/kg, groups 4, 8): 8.2 | blood sugar [2, 11]: 14.5 | blood sugar [2, 12]: 12.3 | blood sugar ([2]; 20st day, 1 mg/kg, groups 3, 7): 12.8 | blood sugar ([2]; 20st day, 5 mg/kg, groups 4, 8): 10.1 | blood sugar [2, 13]: 14.59 | blood sugar [2, 14]: 12.5 | abnormal phenomena by autopsy (Kunming species mice; mice, intragastric administration, dose 5 g/kg): no obvious abnormal phenomena are found by autopsy | LD50 [3]: > 5000 mg/kg

CC(C)=CCC/C(C)=C/CCC1=C[C@@H](c2cc(O)ccc2O)OC1=O [S28, (S,E)-5-(2,5-dihydroxyphenyl)-3-(4,8-dimethylnona-3,7-dien-1-yl)furan-2(5H)-one]
IC50 [1]: 9.5 µM | effect on blood sugar of hyperglycemia mice (in words) [2]: significant effects on blood sugar of hyperglycemia mice | blood sugar at the 1st day, 0 ([2]; 1 mg/kg, groups 3, 7): 14.5 | blood sugar at the 1st day, 0 ([2]; 5 mg/kg, groups 4, 8): 14.5 | blood sugar at the 1st day, 0 ([2]; 10 mg/kg, groups 5, 9): 14.2 | blood sugar at the 1st day, 0 ([2]; 20 mg/kg, groups 6, 10): 14.1 | blood sugar at the 1st day, 30 min ([2]; 1 mg/kg, groups 3, 7): 11.3 | blood sugar at the 1st day, 30 min ([2]; 5 mg/kg, groups 4, 8): 9.42 | blood sugar at the 1st day, 30 min ([2]; 10 mg/kg, groups 5, 9): 9.32 | blood sugar at the 1st day, 30 min ([2]; 20 mg/kg, groups 6, 10): 6.24 | blood sugar ([2]; 2st day, 1 mg/kg, groups 3, 7): 17.23 | blood sugar ([2]; 2st day, 5 mg/kg, groups 4, 8): 10.2 | blood sugar ([2]; 2st day, 10 mg/kg, groups 5, 9): 13.12 | blood sugar [2, 4]: 13.25 | blood sugar ([2]; 5st day, 1 mg/kg, groups 3, 7): 14.1 | blood sugar ([2]; 5st day, 5 mg/kg, groups 4, 8): 10.8 | blood sugar ([2]; 5st day, 10 mg/kg, groups 5, 9): 13.5 | blood sugar [2, 5]: 12.5 | blood sugar ([2]; 8st day, 1 mg/kg, groups 3, 7): 13.8 | blood sugar ([2]; 8st day, 5 mg/kg, groups 4, 8): 7.12 | blood sugar ([2]; 8st day, 10 mg/kg, groups 5, 9): 14.1 | blood sugar [2, 6]: 12.8 | blood sugar ([2]; 11st day, 1 mg/kg, groups 3, 7): 15.3 | blood sugar ([2]; 11st day, 5 mg/kg, groups 4, 8): 8.21 | blood sugar [2, 7]: 14.3 | blood sugar [2, 8]: 12.9 | blood sugar ([2]; 14st day, 1 mg/kg, groups 3, 7): 12.4 | blood sugar ([2]; 14st day, 5 mg/kg, groups 4, 8): 8.3 | blood sugar [2, 9]: 13.2 | blood sugar [2, 10]: 12.5 | blood sugar ([2]; 17st day, 1 mg/kg, groups 3, 7): 13.1 | blood sugar ([2]; 17st day, 5 mg/kg, groups 4, 8): 8.2 | blood sugar [2, 11]: 14.5 | blood sugar [2, 12]: 12.5 | blood sugar ([2]; 20st day, 1 mg/kg, groups 3, 7): 12.43 | blood sugar ([2]; 20st day, 5 mg/kg, groups 4, 8): 10.23 | blood sugar [2, 13]: 14.12 | blood sugar [2, 14]: 12.45 | abnormal phenomena by autopsy (Kunming species mice; mouse, in vivo): no obvious abnormal phenomena are found by autopsy | body weight of mice after administration (Kunming species mice; mouse, in vivo): drop slightly | LD50 [3]: > 5000 mg/kg
